Results on four compounds are retold here after ChEMBL document CHEMBL5303304, “EUbOPEN Chemogenomics Library - IncuCyte” (2023).

Structures are written as SMILES.

Common to all, as to assay type: toxicity, cell-based
One series concerns HEK-293T. Briefly: Incucyte cell viability with HEK293T. The settings on record: human, 10 µM, compound concentration 10 uM.
For the next series, the system named is Fibroblast. Briefly: Incucyte cell viability with human fibroblast. The settings on record: 10 µM, compound concentration 10 uM.
The test system of another series is U2OS. Briefly: Incucyte cell viability with U2OS. The settings on record: human, 10 µM, compound concentration 10 uM.
Also: unitless GR value; below 1 slowed growth and below 0 cell loss.

Regarding `C=CC(=O)Nc1cc(-c2nn(C3CCC(N4CCN(C(C)=O)CC4)CC3)c3ncnc(N)c23)ccc1Oc1ccccc1` (stereo not given), the “Growth Rate” value is -0.71 in the series with HEK-293T (6 h, replicate number 1); -0.92 in the series with HEK-293T (6 h, replicate number 2); -0.48 in the series on HEK-293T (12 h, replicate number 1); -0.56 in the series with HEK-293T (12 h, replicate number 2); -0.4 in the series with HEK-293T (18 h, replicate number 1); -0.22 with HEK-293T (18 h, replicate number 2). Further, the “Growth Rate” value is recorded as -0.31 in the series on HEK-293T (24 h, replicate number 1); 0.09 with HEK-293T (24 h, replicate number 2); -0.52 in the series with Fibroblast (6 h, replicate number 1); -0.24 in the series on Fibroblast (6 h, replicate number 2); -0.15 in the series on Fibroblast (12 h, replicate number 1); 0.07 in the series with Fibroblast (12 h, replicate number 2). Besides, the “Growth Rate” value in the series on Fibroblast (18 h, replicate number 1) is 0.03; in the series on Fibroblast (18 h, replicate number 2), 0.33; with Fibroblast (24 h, replicate number 1), 0.21; in the series on Fibroblast (24 h, replicate number 2), 0.67; in the series with U2OS (0 h, replicate number 2), -0.83; in the series with U2OS (6 h, replicate number 1), -0.85. The “Growth Rate” value in the series on U2OS (6 h, replicate number 2) is given as -0.6; with U2OS (12 h, replicate number 1) it was -0.62; in the series on U2OS (12 h, replicate number 2), -0.57; with U2OS (18 h, replicate number 1), -0.59; in the series with U2OS (18 h, replicate number 2), -0.48; with U2OS (24 h, replicate number 1), -0.59. Moreover, in the series on U2OS (24 h, replicate number 2), the “Growth Rate” value is -0.41.
For the compound `CCCCC/C=C/C=C1/C(=O)C=C[C@@H]1C/C=C\CCCC(=O)O`, the “Growth Rate” value in the series with HEK-293T (0 h, replicate number 2) was -0.01; in the series on HEK-293T (12 h, replicate number 1), 0.88; in the series with HEK-293T (12 h, replicate number 2), 0.95; in the series on HEK-293T (18 h, replicate number 1), 0.89; in the series on HEK-293T (18 h, replicate number 2), 0.98; in the series on HEK-293T (24 h, replicate number 1), 0.86. In addition, the “Growth Rate” value with HEK-293T (24 h, replicate number 2) was 0.94; in the series on Fibroblast (0 h, replicate number 2), -0.86; in the series with Fibroblast (6 h, replicate number 1) it was 0.99; with Fibroblast (12 h, replicate number 2), 0.93; in the series with Fibroblast (18 h, replicate number 1), 0.94; in the series on Fibroblast (18 h, replicate number 2), 0.89. The “Growth Rate” value is on record as 0.72 in the series on Fibroblast (24 h, replicate number 1); 0.7 in the series on Fibroblast (24 h, replicate number 2); -0.2 in the series on U2OS (0 h, replicate number 2); 0.82 in the series on U2OS (6 h, replicate number 2); 0.62 with U2OS (12 h, replicate number 2); 0.74 in the series on U2OS (18 h, replicate number 1). Moreover, the “Growth Rate” value is reported as 0.7 in the series on U2OS (18 h, replicate number 2); 0.68 in the series with U2OS (24 h, replicate number 1); 0.85 in the series on U2OS (24 h, replicate number 2).
Turning to `CC(C)(O)[C@H]1CC[C@H](Nc2ccc3ncc(-c4cccc(C(F)(F)F)c4)n3n2)CC1` [NUVISERTIB], the “Growth Rate” value in the series on HEK-293T (0 h, replicate number 2) is -0.24; in the series with HEK-293T (6 h, replicate number 1), -0.61; in the series on HEK-293T (6 h, replicate number 2), -0.3; with HEK-293T (12 h, replicate number 1), -0.5; in the series with HEK-293T (12 h, replicate number 2), -0.3; with HEK-293T (18 h, replicate number 1), -0.39. In addition, the “Growth Rate” value is recorded as -0.12 with HEK-293T (18 h, replicate number 2); -0.27 in the series with HEK-293T (24 h, replicate number 1); -0.02 in the series with HEK-293T (24 h, replicate number 2); -0.74 in the series with Fibroblast (6 h, replicate number 1); -0.83 with Fibroblast (6 h, replicate number 2); -0.53 in the series on Fibroblast (12 h, replicate number 1). In addition, the “Growth Rate” value in the series on Fibroblast (12 h, replicate number 2) is reported as -0.72; in the series with Fibroblast (18 h, replicate number 1), -0.46; with Fibroblast (18 h, replicate number 2) it was -0.6; with Fibroblast (24 h, replicate number 1), -0.39; in the series on Fibroblast (24 h, replicate number 2) it was -0.47; in the series on U2OS (0 h, replicate number 1), -0.52. Besides, the “Growth Rate” value with U2OS (6 h, replicate number 1) is listed as 0.88; in the series with U2OS (6 h, replicate number 2), 0.42; in the series on U2OS (12 h, replicate number 1), 0.46; in the series on U2OS (12 h, replicate number 2) it was 0.24; in the series on U2OS (18 h, replicate number 1), 0.38; with U2OS (18 h, replicate number 2), 0.15. In addition, the “Growth Rate” value in the series with U2OS (24 h, replicate number 1) turned out to be 0.32; in the series on U2OS (24 h, replicate number 2), 0.08.
Regarding `COc1ccc(CC(=O)NCc2ccccc2-c2ccccc2C(=O)NCc2ccc(F)cc2F)cc1`, the “Growth Rate” value with HEK-293T (0 h, replicate number 1) is on record as 0.52; in the series on Fibroblast (0 h, replicate number 2), -0.36; with Fibroblast (18 h, replicate number 1) it was 0.19; in the series on Fibroblast (18 h, replicate number 2), 0.88; in the series on Fibroblast (24 h, replicate number 2), 0.91; with U2OS (0 h, replicate number 1), -0.79. Besides, the “Growth Rate” value in the series on U2OS (0 h, replicate number 2) is on record as -0.96; with U2OS (24 h, replicate number 1), 0.89.
